Assays:
human D2 receptor = target: T1, human D2 receptor (Homo sapiens, UniProt P14416); assay: Radioligand binding to cloned human D2 receptor expressed in HEK-293 EBNA cells ([3H]-spiperone); conditions: HEK293 EBNA cell membranes, approximately 0.7 nM [3H]-spiperone, 1 h at RT
T1 construct: expressed in transfected cells; host or cells: HEK293 EBNA cells, transient transfection; membrane preparation
Method: (§1) HEK293 EBNA cells were transiently transfected with expression plasmids encoding for the human D2 or D3 or for the human 5-HT2A receptor, respectively. The cells were harvested 48 h post-transfection, washed three times with cold PBS and stored at −80° C. prior to use. The pellet was suspended in cold 50 mM Tris-HCl buffer comprising 10 mM EDTA (pH 7.4) and was homogenized with a Polytron (Kinematica A G, Basel, Switzerland) for 20-30 sec at 12.000 rpm. After centrifugation at 48.000×g for 30 min at 4° C., the pellet was resuspended in cold 10 mM Tris-HCl buffer comprising 0.1 mM EDTA (pH 7.4), homogenized, and centrifuged as above. This pellet was further resuspended in a smaller volume of ice cold 10 mM Tris-HCl buffer comprising 0.1 mM EDTA (pH 7.4) and homogenized with a Polytron for 20-30 sec at 12.000 rpm. The protein content of this homogenate was determined with the Bio-Rad (Bradford) Protein Assay (Biorad Laboratories GmbH, München, Germany) according to the instructions of the manufacturer using gamma globulin as the standard. This homogenate was stored at −80° C. in aliquots and thawed immediately prior to use.
(§2) Aliquots of membrane preparations were thawed at RT, resupended in assay buffer (D2, D3: 50 mM Tris-HCl, 120 mM NaCl, 5 mM MgCl2, 1 mM EDTA, 5 mM KCl, 1.5 mM CaCl2, pH=7.4; 5-HT2A: 50 mM Tris-HCl, 10 mM MgCl2, 1 mM EGTA, pH=7.4), homogenized with a Polytron for 20-30 sec at 12.000 rpm and adjusted to a final concentration of approximately 7.5 μg protein/well (D2, D3) and 15 μg protein/well (5-HT2A), respectively.
(§3) The binding affinity (Ki) of the compounds was determined using radioligand binding. Membranes were incubated in a total volume of 200 μl with a fixed concentration of radioligand (final concentration approximately 0.7 nM [^3H]-spiperone for D2, 0.5 nM [^3H]-spiperone for D3, and 1.1 nM [^3H]-ketanserin for 5-HT2A) and ten concentrations of test compound in ranging between 10 μM-0.1 nM for 1 h at RT. At the end of the incubation, the reaction mixtures were filtered on to unifilter 96-well white microplates with bonded GF/C filters (Packard BioScience, Zürich, Switzerland; preincubated for 1 h in 0.1% polyethylenimine (PEI) in assay buffer) with a Filtermate 196 harvester (Packard BioScience) and washed 3 times with cold assay buffer. The nonspecific binding was determined with equally composed reaction mixtures in the presence of 10 μM unlabelled spiperone. Per well 45 μl of Microscint 40 (Perkin Elmer, Schwerzenbach, Switzerland) was added, plates for sealed, shaken for 20 min and counted for 3 min on a Topcount Microplate Scintillation Counter (Can berra Packard S A, Zürich, Switzerland) with quenching correction.
(§4) The CPM value for each duplicate of a concentration of competing compound was averaged (y1), then the % specific binding was calculated according to the equation (((y1−non-specific)/(total binding−non-specific))×100). Graphs were plotted with the % specific binding using XLfit, a curve fitting program that iteratively plots the data using Levenberg-Marquardt algorithm. The single site competition analysis equation used was y=A+((B−A)/(1+((x/C)D))), where y is the % specific binding, A is the minimum y, B is the maximum y, C is the IC50, x is the log 10 of the concentration of the competing compound and D is the slope of the curve (the Hill Coefficient). […] The affinity constant (Ki) was calculated using the Cheng-Prusoff equation Ki=(IC50/1+([L]/Kd), where [L] is the concentration of radioligand and Kd is the dissociation constant of the radioligand at the receptor as determined by the saturation isotherm.

human D3 receptor = human D3 receptor (Homo sapiens, UniProt P35462); assay: Radioligand binding to cloned human D3 receptor expressed in HEK-293 EBNA cells ([3H]-spiperone)
Chain of human D3 receptor (P35462 whole entry): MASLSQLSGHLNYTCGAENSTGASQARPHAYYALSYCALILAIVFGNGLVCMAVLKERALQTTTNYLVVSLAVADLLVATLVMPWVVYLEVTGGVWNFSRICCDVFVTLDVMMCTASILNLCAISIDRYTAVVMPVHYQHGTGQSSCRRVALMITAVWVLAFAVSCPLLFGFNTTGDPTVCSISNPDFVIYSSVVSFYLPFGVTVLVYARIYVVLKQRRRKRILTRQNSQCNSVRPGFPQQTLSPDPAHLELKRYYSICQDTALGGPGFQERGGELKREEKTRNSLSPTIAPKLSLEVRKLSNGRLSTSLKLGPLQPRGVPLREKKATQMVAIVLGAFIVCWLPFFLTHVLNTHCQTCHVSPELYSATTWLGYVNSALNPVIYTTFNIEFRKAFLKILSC
Method: as §1, §2, §3, §4

human 5-HT2A receptor = human 5-HT2A receptor (Homo sapiens, UniProt P28223); assay: Radioligand binding to cloned human 5-HT2A receptor expressed in HEK-293 EBNA cells ([3H]-ketanserin)
Chain of human 5-HT2A receptor (P28223 whole entry): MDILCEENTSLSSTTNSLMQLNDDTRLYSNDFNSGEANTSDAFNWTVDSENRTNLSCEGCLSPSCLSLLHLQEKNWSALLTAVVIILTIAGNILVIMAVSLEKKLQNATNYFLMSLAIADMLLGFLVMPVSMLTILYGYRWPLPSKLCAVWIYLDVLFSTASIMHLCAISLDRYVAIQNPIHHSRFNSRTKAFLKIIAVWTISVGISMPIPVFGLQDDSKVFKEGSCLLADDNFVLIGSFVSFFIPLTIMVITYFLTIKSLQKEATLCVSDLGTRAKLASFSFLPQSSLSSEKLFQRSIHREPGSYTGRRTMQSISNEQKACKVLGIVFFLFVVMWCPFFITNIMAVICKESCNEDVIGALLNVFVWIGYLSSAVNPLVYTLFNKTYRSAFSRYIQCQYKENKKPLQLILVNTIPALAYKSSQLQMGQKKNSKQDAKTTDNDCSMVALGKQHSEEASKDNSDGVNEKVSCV
Method: as §1, §2, §3, §4

T1 sequence (P14416 whole entry): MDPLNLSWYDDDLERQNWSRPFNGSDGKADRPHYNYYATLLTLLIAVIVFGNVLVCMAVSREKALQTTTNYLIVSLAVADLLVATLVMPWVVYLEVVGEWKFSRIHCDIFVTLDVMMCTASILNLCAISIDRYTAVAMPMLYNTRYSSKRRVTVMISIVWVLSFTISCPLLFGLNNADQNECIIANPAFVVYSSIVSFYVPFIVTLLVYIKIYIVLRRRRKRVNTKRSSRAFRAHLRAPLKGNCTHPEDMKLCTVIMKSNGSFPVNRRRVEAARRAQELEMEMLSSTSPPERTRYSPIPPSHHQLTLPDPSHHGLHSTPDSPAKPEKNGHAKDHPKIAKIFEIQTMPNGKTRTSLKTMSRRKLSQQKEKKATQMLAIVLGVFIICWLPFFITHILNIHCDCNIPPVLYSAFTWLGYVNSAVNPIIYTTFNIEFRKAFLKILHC

Row | Ki (human D2 receptor) [nM] | melting point [°C] | Ki (human D3 receptor) [nM] | Ki (human 5-HT2A receptor) [nM] | D2 Ki (human D2 receptor) | SMILES
1 | 1280 | 126.5 | 12.8 | 32.9 |  | COCC(=O)N[C@H]1CC[C@H](CCN2CCN(c3nccc4c3OCC4)CC2)CC1 [Example 20, trans-N-(4-{2-[4-(2,3-Dihydro-furo[2,3-c]pyridin-7-yl)-piperazin-1-yl]-ethyl}-cyclohexyl)-2-methoxy-acetamide]
2 | 680 | 187 | 4.36 | 52.1 |  | CS(=O)(=O)CC(=O)N[C@H]1CC[C@H](CCN2CCN(c3nccc4c3OCC4)CC2)CC1 [Example 21, trans-N-(4-{2-[4-(2,3-Dihydro-furo[2,3-c]pyridin-7-yl)-piperazin-1-yl]-ethyl}-cyclohexyl)-2-methanesulfonyl-acetamide]
3 | 247 | 221 | 3.34 | 14.7 |  | O=C(N[C@H]1CC[C@H](CCN2CCN(c3nccc4c3OCC4)CC2)CC1)c1ccccc1 [Example 22, trans-N-(4-{2-[4-(2,3-Dihydro-furo[2,3-c]pyridin-7-yl)-piperazin-1-yl]-ethyl}-cyclohexyl)-benzamide]
4 | 276 | 186 | 5.89 | 30.3 |  | O=C(N[C@H]1CC[C@H](CCN2CCN(c3nccc4c3OCC4)CC2)CC1)C1CCC1 [Example 23, Cyclobutanecarboxylic acid trans-(4-{2-[4-(2,3-dihydro-furo[2,3-c]pyridin-7-yl)-piperazin-1-yl]-ethyl}-cyclohexyl)-amide]
5 | 350 | 187 | 3.19 | 44.9 |  | CC(C)CC(=O)N[C@H]1CC[C@H](CCN2CCN(c3nccc4c3OCC4)CC2)CC1 [Example 24, trans-N-(4-{2-[4-(2,3-Dihydro-furo[2,3-c]pyridin-7-yl)-piperazin-1-yl]-ethyl}-cyclohexyl)-3-methyl-butyramide]
6 | 531 | 147.5 | 5.78 | 36.9 |  | O=C(CC1CCC1)N[C@H]1CC[C@H](CCN2CCN(c3nccc4c3OCC4)CC2)CC1 [Example 25, trans-2-Cyclobutyl-N-(4-{2-[4-(2,3-dihydro-furo[2,3-c]pyridin-7-yl)-piperazin-1-yl]-ethyl}-cyclohexyl)-acetamide]
7 | 481 | 220 | 13.9 | 70.8 |  | CS(=O)(=O)N[C@H]1CC[C@H](CCN2CCN(c3nccc4c3OCC4)CC2)CC1 [Example 26, trans-N-(4-{2-[4-(2,3-Dihydro-furo[2,3-c]pyridin-7-yl)-piperazin-1-yl]-ethyl}-cyclohexyl)-methanesulfonamide]
8 | 367 | 190 | 11.3 | 60.5 |  | CCS(=O)(=O)N[C@H]1CC[C@H](CCN2CCN(c3nccc4c3OCC4)CC2)CC1 [Example 27, Ethanesulfonic acid trans-(4-{2-[4-(2,3-dihydro-furo[2,3-c]pyridin-7-yl)-piperazin-1-yl]-ethyl}-cyclohexyl)-amide]
9 | 425 | 246 | 7.76 | 31.3 |  | O=C(CO)N[C@H]1CC[C@H](CCN2CCN(c3nccc4c3OCC4)CC2)CC1 [Example 28, trans-N-(4-{2-[4-(2,3-Dihydro-furo[2,3-c]pyridin-7-yl)-piperazin-1-yl]-ethyl}-cyclohexyl)-2-hydroxy-acetamide]
10 | 184 | 197.5 | 3.34 | 33.3 |  | O=C(CC1CC1)N[C@H]1CC[C@H](CCN2CCN(c3nccc4c3OCC4)CC2)CC1 [Example 30, trans-2-Cyclopropyl-N-(4-{2-[4-(2,3-dihydro-furo[2,3-c]pyridin-7-yl)-piperazin-1-yl]-ethyl}-cyclohexyl)-acetamide]
11 | 137 | 215.5 | 2.19 | 29.7 |  | N#CCC(=O)N[C@H]1CC[C@H](CCN2CCN(c3nccc4c3OCC4)CC2)CC1 [Example 31, trans-2-Cyano-N-(4-{2-[4-(2,3-dihydro-furo[2,3-c]pyridin-7-yl)-piperazin-1-yl]-ethyl}-cyclohexyl)-acetamide]
12 | 822 | 181 | 10.6 | 18.9 |  | O=C(C[C@H]1COCCO1)N[C@H]1CC[C@H](CCN2CCN(c3nccc4c3OCC4)CC2)CC1 [Example 32, trans-N-(4-{2-[4-(2,3-Dihydro-furo[2,3-c]pyridin-7-yl)-piperazin-1-yl]-ethyl}-cyclohexyl)-2-(S)[1,4]dioxan-2-yl-acetamide]
13 | 276 | 216.5 | 4.29 | 44.2 |  | O=C(CC(F)(F)F)N[C@H]1CC[C@H](CCN2CCN(c3nccc4c3OCC4)CC2)CC1 [Example 33, trans-N-(4-{2-[4-(2,3-Dihydro-furo[2,3-c]pyridin-7-yl)-piperazin-1-yl]-ethyl}-cyclohexyl)-3,3,3-trifluoro-propionamide]
14 | 172 | 195 | 7.43 | 28 |  | O=C(N[C@H]1CC[C@H](CCN2CCN(c3nccc4c3OCC4)CC2)CC1)C1CCOC1 (stereo partly drawn) [Example 34, Tetrahydro-furan-3-carboxylic acid trans-(4-{2-[4-(2,3-dihydro-furo[2,3-c]pyridin-7-yl)-piperazin-1-yl]-ethyl}-cyclohexyl)-amide]
15 | 384 | 181 | 8.28 | 36.1 |  | O=C(C[C@@H]1COCCO1)N[C@H]1CC[C@H](CCN2CCN(c3nccc4c3OCC4)CC2)CC1 [Example 35, trans-N-(4-{2-[4-(2,3-Dihydro-furo[2,3-c]pyridin-7-yl)-piperazin-1-yl]-ethyl}-cyclohexyl)-2-(R)-[1,4]dioxan-2-yl-acetamide]
16 | 102 | 193 | 7.49 | 32.3 |  | O=C(N[C@H]1CC[C@H](CCN2CCN(c3nccc4c3OCC4)CC2)CC1)C1CC1 [Example 36, trans-Cyclopropanecarboxylic acid (4-{2-[4-(2,3-dihydro-furo[2,3-c]pyridin-7-yl)-piperazin-1-yl]-ethyl}-cyclohexyl)-amide]
17 | 265 | 203.5 | 7.25 | 34.8 |  | CC(C)C(=O)N[C@H]1CC[C@H](CCN2CCN(c3nccc4c3OCC4)CC2)CC1 [Example 37, trans-N-(4-{2-[4-(2,3-Dihydro-furo[2,3-c]pyridin-7-yl)-piperazin-1-yl]-ethyl}-cyclohexyl)-isobutyramide]
18 | 2280 | 241.5 | 15.5 | 16.6 |  | O=C(N[C@H]1CC[C@H](CCN2CCN(c3nccc4c3OCC4)CC2)CC1)c1ccc(N2CCOCC2)cc1 [Example 38, trans-N-(4-{2-[4-(2,3-Dihydro-furo[2,3-c]pyridin-7-yl)-piperazin-1-yl]-ethyl}-cyclohexyl)-4-morpholin-4-yl-benzamide]
19 |  | 222 | 6.22 | 21.9 | inactive | O=C(N[C@H]1CC[C@H](CCN2CCN(c3nccc4c3OCC4)CC2)CC1)c1ccnc2ccccc12 [Example 39, Quinoline-4-carboxylic acid trans-(4-{2-[4-(2,3-dihydro-furo[2,3-c]pyridin-7-yl)-piperazin-1-yl]-ethyl}-cyclohexyl)-amide]
20 | 1650 | 235.5 | 8.93 | 22.1 |  | O=C(N[C@H]1CC[C@H](CCN2CCN(c3nccc4c3OCC4)CC2)CC1)c1ccc(F)cc1 [Example 40, trans-N-(4-{2-[4-(2,3-Dihydro-furo[2,3-c]pyridin-7-yl)-piperazin-1-yl]-ethyl}-cyclohexyl)-4-fluoro-benzamide]
21 | 2350 | 177.5 | 33.4 | 63.8 |  | CN(C)C(=O)CCC(=O)N[C@H]1CC[C@H](CCN2CCN(c3nccc4c3OCC4)CC2)CC1 [Example 41, trans-N-(4-{2-[4-(2,3-Dihydro-furo[2,3-c]pyridin-7-yl)-piperazin-1-yl]-ethyl}-cyclohexyl)-N′,N′-dimethyl-succinamide]
22 | 879 | 175 | 15.5 | 44.4 |  | CC(C)CCC(=O)N[C@H]1CC[C@H](CCN2CCN(c3nccc4c3OCC4)CC2)CC1 [Example 42, trans-4-Methyl-pentanoic acid (4-{2-[4-(2,3-dihydro-furo[2,3-c]pyridin-7-yl)-piperazin-1-yl]-ethyl}-cyclohexyl)-amide]
23 | 3710 | 222.5 | 2.68 | 41.2 |  | Cc1cc(CC(=O)N[C@H]2CC[C@H](CCN3CCN(c4nccc5c4OCC5)CC3)CC2)on1 [Example 43, trans-N-(4-{2-[4-(2,3-Dihydro-furo[2,3-c]pyridin-7-yl)-piperazin-1-yl]-ethyl}-cyclohexyl)-2-(3-methyl-isoxazol-5-yl)-acetamide]
24 | 793 | 248.5 | 16.8 | 9.91 |  | O=C(N[C@H]1CC[C@H](CCN2CCN(c3nccc4c3OCC4)CC2)CC1)C1(O)CC1 [Example 44, 1-Hydroxy-cyclopropanecarboxylic acid trans-(4-{2-[4-(2,3-dihydro-furo[2,3-c]pyridin-7-yl)-piperazin-1-yl]-ethyl}-cyclohexyl)-amide]
25 | 731 | 183 | 10.1 | 50.1 |  | CCCC(=O)N[C@H]1CC[C@H](CCN2CCN(c3nccc4c3OCC4)CC2)CC1 [Example 45, trans-N-(4-{2-[4-(2,3-Dihydro-furo[2,3-c]pyridin-7-yl)-piperazin-1-yl]-ethyl}-cyclohexyl)-butyramide]

Source: US8470828B2, “Anellated pyridine compounds” (Hoffmann-La Roche Inc., priority 2010, dated 2013)
